{
  "source": "paper PMC9154774",
  "about": "“4-(3-Alkyl/benzyl-guanidino)benzenesulfonamides as selective carbonic anhydrase VII inhibitors” (Journal of Enzyme Inhibition and Medicinal Chemistry, 2022)",
  "test_in_all_cases": "stopped-flow CO2 hydration assay, phenol red",
  "format_in_all_cases": "biochemical",
  "key": {"[1]": {"molecular_target": "T1, CA II (hCA II) (Homo sapiens, UniProt P00918)", "T1 construct": "gene CA2; recombinant, obtained in-house as reported earlier", "text": "stopped-flow CO2 hydration assay, phenol red on CA II (hCA II)"}, "[2]": {"molecular_target": "T2, CA I (hCA I) (Homo sapiens, UniProt P00915)", "T2 construct": "gene CA1; recombinant, obtained in-house as reported earlier", "T2 sequence (P00915 2-261)": "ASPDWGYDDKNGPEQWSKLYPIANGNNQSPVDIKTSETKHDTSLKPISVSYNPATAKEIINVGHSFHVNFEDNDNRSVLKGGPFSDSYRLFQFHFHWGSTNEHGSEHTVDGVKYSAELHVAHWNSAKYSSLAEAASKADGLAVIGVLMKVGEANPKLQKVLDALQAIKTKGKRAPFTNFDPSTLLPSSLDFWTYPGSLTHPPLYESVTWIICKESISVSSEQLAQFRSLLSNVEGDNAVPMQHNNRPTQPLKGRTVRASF", "text": "stopped-flow CO2 hydration assay, phenol red on CA I (hCA I)"}, "[3]": {"molecular_target": "T3, CA VII (hCA VII) (Homo sapiens, UniProt P43166)", "T3 construct": "gene CA7; recombinant, obtained in-house as reported earlier", "T3 sequence (P43166 whole entry)": "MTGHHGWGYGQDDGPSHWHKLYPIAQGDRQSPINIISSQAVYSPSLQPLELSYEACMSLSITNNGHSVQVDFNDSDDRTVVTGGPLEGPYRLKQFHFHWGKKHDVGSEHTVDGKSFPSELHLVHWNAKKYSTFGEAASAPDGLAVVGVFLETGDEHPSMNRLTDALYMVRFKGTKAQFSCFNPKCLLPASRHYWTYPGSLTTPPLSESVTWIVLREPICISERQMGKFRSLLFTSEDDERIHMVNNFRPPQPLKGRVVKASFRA", "text": "stopped-flow CO2 hydration assay, phenol red on CA VII (hCA VII)"}},
  "data": [
    {"smiles": "N=C(NCc1ccccc1)Nc1ccc(S(N)(=O)=O)cc1", "note": "[7a, 4-(3-Benzyl-guanidino)benzenesulfonamide]", "values": [
      {"measurement": "Ki", "setting": "[1]", "value": 7.7, "unit": "nM"},
      {"measurement": "Ki", "setting": "[2]", "value": 746, "unit": "nM"},
      {"measurement": "Ki", "setting": "[3]", "value": 10.1, "unit": "nM"}
    ]},
    {"smiles": "COc1ccc(CNC(=N)Nc2ccc(S(N)(=O)=O)cc2)cc1", "note": "[7b, 4-(3-(4-Methoxybenzyl)guanidino)benzenesulfonamide]", "values": [
      {"measurement": "Ki", "setting": "[1]", "value": 17.7, "unit": "nM"},
      {"measurement": "Ki", "setting": "[2]", "value": 699, "unit": "nM"},
      {"measurement": "Ki", "setting": "[3]", "value": 25.1, "unit": "nM"}
    ]},
    {"smiles": "N=C(NCc1ccc(F)cc1)Nc1ccc(S(N)(=O)=O)cc1", "note": "[7c, 4-(3-(4-Fluorobenzyl)guanidino)benzenesulfonamide]", "values": [
      {"measurement": "Ki", "setting": "[1]", "value": 59.1, "unit": "nM"},
      {"measurement": "Ki", "setting": "[2]", "value": 989, "unit": "nM"},
      {"measurement": "Ki", "setting": "[3]", "value": 15, "unit": "nM"}
    ]},
    {"smiles": "N=C(NCc1cccc(F)c1)Nc1ccc(S(N)(=O)=O)cc1", "note": "[7d, 4-(3-(3-Fluorobenzyl)guanidino)benzenesulfonamide]", "values": [
      {"measurement": "Ki", "setting": "[1]", "value": 1.6, "unit": "nM"},
      {"measurement": "Ki", "setting": "[2]", "value": 782, "unit": "nM"},
      {"measurement": "Ki", "setting": "[3]", "value": 60.7, "unit": "nM"}
    ]},
    {"smiles": "N=C(NCc1ccccc1F)Nc1ccc(S(N)(=O)=O)cc1", "note": "[7e, 4-(3-(2-Fluorobenzyl)guanidino)benzenesulfonamide]", "values": [
      {"measurement": "Ki", "setting": "[1]", "value": 3.2, "unit": "nM"},
      {"measurement": "Ki", "setting": "[2]", "value": 2990, "unit": "nM"},
      {"measurement": "Ki", "setting": "[3]", "value": 44.9, "unit": "nM"}
    ]},
    {"smiles": "Cc1cccc(CNC(=N)Nc2ccc(S(N)(=O)=O)cc2)c1", "note": "[7f, 4-(3-(3-Methylbenzyl)guanidino)benzenesulfonamide]", "values": [
      {"measurement": "Ki", "setting": "[1]", "value": 0.3, "unit": "nM"},
      {"measurement": "Ki", "setting": "[2]", "value": 2930, "unit": "nM"},
      {"measurement": "Ki", "setting": "[3]", "value": 0.9, "unit": "nM"}
    ]},
    {"smiles": "Cc1ccccc1CNC(=N)Nc1ccc(S(N)(=O)=O)cc1", "note": "[7g, 4-(3-(2-Methylbenzyl)guanidino)benzenesulfonamide]", "values": [
      {"measurement": "Ki", "setting": "[1]", "value": 0.07, "unit": "nM"},
      {"measurement": "Ki", "setting": "[2]", "value": 3160, "unit": "nM"},
      {"measurement": "Ki", "setting": "[3]", "value": 0.4, "unit": "nM"}
    ]},
    {"smiles": "CC(NC(=N)Nc1ccc(S(N)(=O)=O)cc1)c1ccccc1", "note": "(stereo not drawn) [7h, 4-(3-(1-Phenylethyl)guanidino)benzenesulfonamide]", "values": [
      {"measurement": "Ki", "setting": "[1]", "value": 9.6, "unit": "nM"},
      {"measurement": "Ki", "setting": "[2]", "value": 1320, "unit": "nM"},
      {"measurement": "Ki", "setting": "[3]", "value": 1.1, "unit": "nM"}
    ]},
    {"smiles": "Cc1cccc(CN(C)C(=N)Nc2ccc(S(N)(=O)=O)cc2)c1", "note": "[7i, 4-(3-Methyl-3-(3-methylbenzyl)guanidino)benzenesulfonamide]", "values": [
      {"measurement": "Ki", "setting": "[1]", "value": 0.08, "unit": "nM"},
      {"measurement": "Ki", "setting": "[2]", "value": 1140, "unit": "nM"},
      {"measurement": "Ki", "setting": "[3]", "value": 0.7, "unit": "nM"}
    ]},
    {"smiles": "N=C(Nc1ccc(S(N)(=O)=O)cc1)N(Cc1ccccc1)Cc1ccccc1", "note": "[7j, 4-(3,3-Dibenzyl-guanidino)benzenesulfonamide]", "values": [
      {"measurement": "Ki", "setting": "[1]", "value": 0.6, "unit": "nM"},
      {"measurement": "Ki", "setting": "[2]", "value": 5850, "unit": "nM"},
      {"measurement": "Ki", "setting": "[3]", "value": 3.2, "unit": "nM"}
    ]},
    {"smiles": "N=C(NCCOc1ccccc1)Nc1ccc(S(N)(=O)=O)cc1", "note": "[7k, 4-(3-(2-Phenoxyethyl)guanidino)benzenesulfonamide]", "values": [
      {"measurement": "Ki", "setting": "[1]", "value": 6.9, "unit": "nM"},
      {"measurement": "Ki", "setting": "[2]", "value": 4180, "unit": "nM"},
      {"measurement": "Ki", "setting": "[3]", "value": 8.7, "unit": "nM"}
    ]},
    {"smiles": "CCCCCCCCNC(=N)Nc1ccc(S(N)(=O)=O)cc1", "note": "[7l, 4-(3-octylguanidino)benzenesulfonamide]", "values": [
      {"measurement": "Ki", "setting": "[1]", "value": 0.9, "unit": "nM"},
      {"measurement": "Ki", "setting": "[2]", "value": 730, "unit": "nM"},
      {"measurement": "Ki", "setting": "[3]", "value": 2.2, "unit": "nM"}
    ]},
    {"smiles": "CCCCCCCCCCCCNC(=N)Nc1ccc(S(N)(=O)=O)cc1", "note": "[7m, 4–(3-Dodecylguanidino)benzenesulfonamide]", "values": [
      {"measurement": "Ki", "setting": "[1]", "value": 0.4, "unit": "nM"},
      {"measurement": "Ki", "setting": "[2]", "value": 930, "unit": "nM"},
      {"measurement": "Ki", "setting": "[3]", "value": 0.2, "unit": "nM"}
    ]},
    {"smiles": "CCCCCCCCCCCCCCCCNC(=N)Nc1ccc(S(N)(=O)=O)cc1", "note": "[7n, 4-(3-hexadecylguanidino)benzenesulfonamide]", "values": [
      {"measurement": "Ki", "setting": "[1]", "value": 0.06, "unit": "nM"},
      {"measurement": "Ki", "setting": "[2]", "value": 2150, "unit": "nM"},
      {"measurement": "Ki", "setting": "[3]", "value": 0.08, "unit": "nM"}
    ]},
    {"smiles": "N=C(Nc1ccc(S(N)(=O)=O)cc1)N1CCN(Cc2ccccc2)CC1", "note": "[7o, 4-Benzyl-N-(4-sulfamoylphenyl)piperazine-1-carboximidamide]", "values": [
      {"measurement": "Ki", "setting": "[1]", "value": 0.1, "unit": "nM"},
      {"measurement": "Ki", "setting": "[2]", "value": 3680, "unit": "nM"},
      {"measurement": "Ki", "setting": "[3]", "value": 0.06, "unit": "nM"}
    ]}
  ]
}
